# Results from EP4603481A1, “PREPARATION AND USE OF CATIONIC LIPID MATERIAL” (Nanjing Geneleap Biotechnology Co., Ltd., priority 2022, dated 2024).
# “Also recorded” adds a separate entry of the source.
# Columns and labels:
# Balb/c mice [1] = assay: Animal transfection of lipid nanoparticles, in vivo imaging after 12 h; conditions: for Multiple of local photon intensity in the supine position relative to MC3 / Multiple of photon intensity of the viscera in the supine position relative to MC3: Table 8, 0.1 mg/kg FFluc mRNA, 12 h; for Multiple of local photon intensity in the supine position relative to MC3: injection site; for Multiple of photon intensity of the viscera in the supine position relative to MC3: viscera (liver); for toxic and side effect on the liver: inferred from expression in the liver 12 h after administration
# Procedure: (§1) Balb/c mice (available from Vital River Laboratory Animal Technology Co., Ltd., male, 6-8 weeks old, 20-24 g) were randomized into groups, 5 mice per group. The mice were injected the prepared lipid nanoparticles into the leg muscle at a dose of 0.1 mg/kg (calculated as to FFluc mRNA (SEQ ID NO.1)) and observed by in vivo imaging after 12 h. The injection sites on the bellies and legs of Balb/c mice were depilated, and after anesthesia, the animals were injected D-luciferin potassium salt intraperitoneally, and were observed and photographed in an IVIS living body imager (PerkinElmer, Series III), wherein the observation time of living body images was within 15 min after the injection of substrate. Table 7. Results of animal transfection efficiency of lipid nanoparticles made from different cationic lipids
# Balb/c mice [2] = assay: Animal transfection of lipid nanoparticles, in vivo imaging after 24 h; conditions: leg muscle injection, 0.1 mg/kg FFluc mRNA; for Multiple of total photon intensity in the supine position relative to MC3: Table 5, Balb/c mice; for Multiple of local photon intensity in the supine position relative to MC3: Table 5, injection site
# Procedure: as §1, with “24” for “12”, “5.” for “7.”
SMILES,Multiple of local photon intensity in the supine position relative to MC3 (Balb/c mice [1]; 0.1 mg/kg),Multiple of photon intensity of the viscera in the supine position relative to MC3 (Balb/c mice [1]),toxic and side effect on the liver (Balb/c mice [1]),Multiple of total photon intensity in the supine position relative to MC3 (Balb/c mice [2]),Multiple of local photon intensity in the supine position relative to MC3 (Balb/c mice [2]),Multiple of local photon intensity in the supine position relative to MC3 (Balb/c mice [1])
CCCCCCCCC(CCCCCCCC)OC(=O)CCCCC(=O)OCC(CN(C)CCN1CCCC1)OC(=O)CCCCC(=O)OC(CCCCCCCC)CCCCCCCC (stereo not drawn) [Compound 18],equivalent; also recorded: not weaker than that of MC3 LNP,almost have no expression in the liver,completely avoid liver toxicity; also recorded: completely avoid the toxic and side effect on the liver,,,
CCCCCCCCC(CCCCCCCC)OC(=O)CCCCC(=O)OCC(CN(C)CCN1CCN(C)CC1)OC(=O)CCCCC(=O)OC(CCCCCCCC)CCCCCCCC (stereo not drawn) [Compound 17],equivalent; also recorded: not weaker than that of MC3 LNP,almost have no expression in the liver,completely avoid liver toxicity; also recorded: completely avoid the toxic and side effect on the liver,,,
CCCCCCCCC(CCCCCC)C(=O)OCC(CN(C)CCN1CCCC1)OC(=O)C(CCCCCC)CCCCCCCC (stereo not drawn) [Compound 1],,,,1.668,significantly higher,not weaker than that of MC3 LNP
CCCCCCCCC(CCCCCC)C(=O)OCC(CN(C)CCN1CCN(C)CC1)OC(=O)C(CCCCCC)CCCCCCCC (stereo not drawn) [Compound 2],,,,equivalent,significantly higher,not weaker than that of MC3 LNP
